Data taken from US12522594B2, “2-heteroaryl-3-oxo-2,3-dihydropyridazine-4-carboxamides for the treatment of cancer” (Deutsches Krebsforschungszentrum, priority 2017, dated 2026).
pIC50: −log10 of the molar value. Values joined by “and” are separate entries in the source; they are usually repeats but may differ in a detail not shown here. Equal values may be shown once.

Key:
[1] = system: human monocytes; assay: In vitro assay 4: rescue of TNFα production from human primary monocytes (LPS + KA); type: cell-based; details: one value per donor
[2] = system: B16F10-OVA cells; assay: In vivo assay: efficacy of an example compound and a PD-1/-L1 axis antagonist, B16F10-OVA tumor in C57/BL6N mice; set-up: species or system mouse; details: tumor volume treatment/control; single agent plus vehicle or isotype; AhR antagonist 30 mg/kg QD p.o.; aPDL1 (TPP-3911) 10 mg/kg q3d i.p.
Description: In Vivo Assay: Efficacy of Compositions Comprising an Example Compound and a PD-1/-L1 Axis Antagonist
Animals are ordered from Charles River Sulzfeld, Germany and assigned to the study at the age of 7 weeks. Animal husbandry, feeding and health conditions are according to animal welfare guidelines. B16F10-OVA cells are B16F10 mouse melanoma cells that were virally transduced to express ovalbumin. […] The antibiotic blasticidin is removed 1 passage before inoculation. Female C57/BL6N mice were inoculated with 100000 B16F100VA tumor cells in 50% medium/50% matrigel subcutaneously in the flank. After 5 days the animals were randomized and therapeutic treatment started.
The anti-PDL1 antibody is a chimera of the variable domain of atezolizumab with murine IgG1 CH1, 2 and 3 domains.

[3] = system: B16F10-OVA cells; assay: In vivo assay: efficacy of an example compound and a CTLA4 axis antagonist, B16F10-OVA tumor in C57/BL6J mice; set-up: species or system mouse; details: tumor volume treatment/control; single agent plus vehicle or isotype; AhR antagonist 30 mg/kg QD p.o.; aCTLA4 1 mg/kg q3d i.p.
Description: In Vivo Assay: Efficacy of Compositions Comprising an Example Compound and a CTLA4 Axis Antagonist
Animals are ordered from Charles River Sulzfeld, Germany and assigned to the study at the age of 8 weeks. Animal husbandry, feeding and health conditions are according to animal welfare guidelines. B16F10-OVA cells are B16F10 mouse melanoma cells that were virally transduced to express ovalbumin. B16F10-OVA cells were cultivated with RPMI 1640 with 10% FCS+2.5 μg/ml blasticidin and splitted at least 3 times before inoculation. The antibiotic blasticidin is removed 1 passage before inoculation. Female C57/BL6J mice were inoculated with 10000 B16F10-OVA tumor cells in 50% medium/50% matrigel subcutaneously in the flank. After 7 days the animals were randomized and therapeutic treatment started on day 8. The AhR antagonists were dissolved in Ethanol/Solutol/Water (10/40/50) and given at 30 mg/kg, QD, p.o. The anti-CTLA4 antibody was dosed at 1 mg/kg, q3d, i.p. The anti-CTLA4 antibody is mouse-specific with syrian hamster IgG1 isotype (Clone: 9H10 (anti mouse CTLA4), Fa. BioXCell BE0131). […]
Tumor size was measured using calipers determining length (a) and width (b). Tumor volume was calculated according to: […]
Based on tumor volume efficacy was calculated dividing tumor volume of the respective treatment group by tumor volume of the control group (T/C).

[4] = biological target: T1, AHR (Homo sapiens, UniProt P35869); assay: In vitro assay 3: AHR-regulated CYP1A1 expression in human cell line (U937, qPCR, KA stimulation); type: cell-based; details: U937 cells, 200 uM KA, 6 hours, CYP1A1 expression by qPCR; read-out: Assay 3: Hum CYP1A1 Antagonism IC50
T1 sequence (P35869 11-848): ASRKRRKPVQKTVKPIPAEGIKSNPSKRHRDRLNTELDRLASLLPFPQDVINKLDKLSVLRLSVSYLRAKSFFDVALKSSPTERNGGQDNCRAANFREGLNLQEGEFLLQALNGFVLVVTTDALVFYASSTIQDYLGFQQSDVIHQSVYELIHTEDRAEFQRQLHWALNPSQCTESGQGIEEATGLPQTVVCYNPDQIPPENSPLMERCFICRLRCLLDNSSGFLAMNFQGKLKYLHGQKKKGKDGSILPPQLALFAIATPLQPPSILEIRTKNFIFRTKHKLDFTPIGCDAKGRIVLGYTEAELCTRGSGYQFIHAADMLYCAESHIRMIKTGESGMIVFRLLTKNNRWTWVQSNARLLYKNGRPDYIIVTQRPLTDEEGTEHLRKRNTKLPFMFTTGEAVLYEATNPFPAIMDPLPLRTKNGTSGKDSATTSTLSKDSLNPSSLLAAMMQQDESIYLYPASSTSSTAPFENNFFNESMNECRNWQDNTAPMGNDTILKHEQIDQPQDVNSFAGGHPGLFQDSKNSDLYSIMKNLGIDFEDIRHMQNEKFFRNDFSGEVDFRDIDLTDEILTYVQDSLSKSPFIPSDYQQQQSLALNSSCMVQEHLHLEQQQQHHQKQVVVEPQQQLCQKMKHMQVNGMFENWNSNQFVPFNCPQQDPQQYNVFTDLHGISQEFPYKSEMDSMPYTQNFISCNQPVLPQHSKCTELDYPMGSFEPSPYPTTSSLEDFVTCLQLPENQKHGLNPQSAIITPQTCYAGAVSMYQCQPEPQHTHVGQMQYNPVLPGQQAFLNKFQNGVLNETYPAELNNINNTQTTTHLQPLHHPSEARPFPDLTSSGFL
Summary of the method: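 U937 human monocytic cells were stimulated with 200 uM KA for 6 h, with or without compound at eight concentrations from 1 nM to 3 uM, in duplicate. CYP1A1 mRNA was quantified by Taqman qPCR as fold expression normalised to HPRT. Unstimulated cells served as negative control.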

[5] = biological target: T1, AHR; assay: In vitro assay 1: antagonism in human cell line (transactivation assay, U87 cells prestimulated with kynurenic acid, DRE firefly luciferase reporter); type: cell-based; set-up: host or cells: U87 glioblastoma cells, stably transfected with DRE firefly luciferase and renilla reporter constructs; details: 150 uM kynurenic acid, 20 hours, read-out: Assay 1: AHR-luc Hum Antagonism IC50
Summary of the method: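 Antagonism measured after kynurenic acid prestimulation in U87 cells that express AHR endogenously and stably harbor a firefly luciferase gene under DRE control plus a constitutive renilla construct. Positive and negative controls served for normalization.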

[6] = biological target: T1, AHR; assay: In vitro assay 2: agonism in human cell line (transactivation assay, U87 cells, DRE firefly luciferase reporter); type: cell-based; set-up: host or cells: U87 glioblastoma cells, stably transfected with DRE firefly luciferase and renilla reporter constructs; details: no kynurenic acid, 20 hours, read-out: Assay 2: AHR-luc Hum Agonism IC50
Summary of the method: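 Agonist readout: DRE firefly luciferase, with constitutive renilla reporter, in stably transfected U87 cells expressing AHR endogenously. Normalization used positive control (300 uM kynurenic acid) and negative control.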

Row | pIC50 [4] | pIC50 [5] | pIC50 [6] | SMILES | Individual Donors Conc of highest rescue ([1]; concentration (of 1, 0.3, 0.1 uM tested) at which highest TNFα rescue was observed) [µM] | Individual Donors % rescue TNFα normalised to ref cmpd ([1]; human monocytes, 10 ng/mL LPS + 200 uM KA, 18 hours, highest percent rescue relative to highest rescue with GNF-351) | T/C [2] | T/C [3]
1 | – | – | – | C[C@@H](CO)NC(=O)c1cc(-c2ccc(Cl)cc2)nn(-c2cnn(C)c2)c1=O [Example 17, 6-(4-Chlorophenyl)-N-[(2S)-1-hydroxypropan-2-yl]-2-(1-methyl-1H-pyrazol-4-yl)-3-oxo-2,3-dihydropyridazine-4-carboxamide] | 1 | 438% and 296% | 0.92 | 0.90
2 | 8.14 | 8.21 | < 4.70 | O=C(NC[C@H](O)C(F)(F)F)c1cc(-c2ccc(OC(F)(F)F)cc2)nn(-c2cccnc2)c1=O [Example 131, 3-Oxo-2-(pyridin-3-yl)-N-[(2S)-3,3,3-trifluoro-2-hydroxypropyl]-6-[4-(trifluoromethoxy)phenyl]-2,3-dihydropyridazine-4-carboxamide] | – | – | – | 1.05
